{"source": "ChEMBL document CHEMBL5233223", "about": "“Dammarane-type leads panaxadiol and protopanaxadiol for drug discovery: Biological activity and structural modification” (Eur J Med Chem, 2020)", "key": {"[1]": {"system": "HeLa", "assay": "Antiproliferative activity against human HeLa cells assessed as cell growth inhibition", "assay_type": "functional, cell-based"}, "[2]": {"target": "11-beta-hydroxysteroid dehydrogenase 1 (Homo sapiens, UniProt P28845)", "sequence (P28845 whole entry)": "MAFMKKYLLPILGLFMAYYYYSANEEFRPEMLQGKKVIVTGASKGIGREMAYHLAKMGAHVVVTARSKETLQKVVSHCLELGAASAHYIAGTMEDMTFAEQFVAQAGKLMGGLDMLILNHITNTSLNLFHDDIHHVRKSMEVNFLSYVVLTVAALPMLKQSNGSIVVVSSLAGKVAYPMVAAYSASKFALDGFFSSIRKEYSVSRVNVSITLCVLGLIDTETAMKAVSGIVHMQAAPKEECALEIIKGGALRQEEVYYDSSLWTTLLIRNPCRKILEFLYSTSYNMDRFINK", "assay": "Inhibition of human 11beta-HSD1"}, "[3]": {"target": "11-beta-hydroxysteroid dehydrogenase 1 (Mus musculus, UniProt P50172)", "sequence (P50172 whole entry)": "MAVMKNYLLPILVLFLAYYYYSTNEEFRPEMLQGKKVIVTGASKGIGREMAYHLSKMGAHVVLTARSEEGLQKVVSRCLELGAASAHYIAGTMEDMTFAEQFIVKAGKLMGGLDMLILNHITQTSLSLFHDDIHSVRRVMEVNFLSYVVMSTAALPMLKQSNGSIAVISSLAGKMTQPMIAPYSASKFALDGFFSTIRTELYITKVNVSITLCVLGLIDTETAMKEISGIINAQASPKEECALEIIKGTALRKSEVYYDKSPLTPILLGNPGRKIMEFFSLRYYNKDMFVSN", "assay": "Inhibition of mouse 11beta-HSD1"}, "[4]": {"system": "HepG2 2.2.15", "assay": "Antiproliferative activity against human HepG2.2.15 cells assessed as cell growth inhibition", "assay_type": "functional, cell-based"}, "[5]": {"system": "HCT-116", "assay": "Antiproliferative activity against human HCT-116 cells assessed as cell growth inhibition by crystal violet staining based assay", "assay_type": "functional"}, "[6]": {"system": "HCT-116", "assay": "Antiproliferative activity against human HCT-116 cells assessed as cell growth inhibition by crystal violet staining based assay relative to control", "assay_type": "functional", "parameters": "scale not given: the % may be the effect or the level left"}, "[7]": {"system": "SW480", "assay": "Antiproliferative activity against human SW480 cells assessed as cell growth inhibition by crystal violet staining based assay", "assay_type": "functional"}, "[8]": {"system": "LNCaP", "assay": "Antiproliferative activity against human LNCAP cells assessed as cell growth inhibition in presence of calcitriol", "assay_type": "functional, cell-based"}, "[9]": {"system": "LNCaP C4-2", "assay": "Antiproliferative activity against human LNCaP C4-2 cells assessed as cell growth inhibition in presence of calcitriol", "assay_type": "functional, cell-based"}, "[10]": {"system": "LNCaP C4-2", "assay": "Antiproliferative activity against human LNCaP C4-2 cells assessed as cell growth inhibition", "assay_type": "functional, cell-based"}, "[11]": {"system": "LNCaP", "assay": "Antiproliferative activity against human LNCAP cells assessed as cell growth inhibition", "assay_type": "functional, cell-based"}, "[12]": {"target": "Estrogen receptor (Homo sapiens, UniProt P03372)", "sequence (P03372 whole entry)": "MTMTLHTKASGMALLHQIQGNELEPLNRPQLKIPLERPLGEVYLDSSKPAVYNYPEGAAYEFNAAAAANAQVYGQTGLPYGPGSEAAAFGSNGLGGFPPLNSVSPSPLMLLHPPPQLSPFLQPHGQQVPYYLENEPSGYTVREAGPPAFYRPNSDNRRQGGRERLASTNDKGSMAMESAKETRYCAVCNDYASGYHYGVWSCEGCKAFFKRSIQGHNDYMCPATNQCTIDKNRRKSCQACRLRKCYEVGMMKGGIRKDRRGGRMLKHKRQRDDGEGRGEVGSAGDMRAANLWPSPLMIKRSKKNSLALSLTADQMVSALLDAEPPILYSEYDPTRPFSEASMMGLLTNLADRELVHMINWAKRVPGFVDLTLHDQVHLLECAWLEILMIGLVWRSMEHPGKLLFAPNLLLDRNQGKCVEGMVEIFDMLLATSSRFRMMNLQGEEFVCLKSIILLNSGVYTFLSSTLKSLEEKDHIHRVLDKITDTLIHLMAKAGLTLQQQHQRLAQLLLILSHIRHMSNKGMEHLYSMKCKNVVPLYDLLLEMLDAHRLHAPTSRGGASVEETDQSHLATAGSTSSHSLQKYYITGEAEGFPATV", "assay": "Displacement of [3H]-17beta-estradiol to estrogen receptor (unknown origin)"}, "[13]": {"system": "HT-1080", "assay": "Antiproliferative activity against human HT-1080 cells assessed as inhibition of cell proliferation", "assay_type": "functional, cell-based"}, "[14]": {"target": "Stromelysin-1 (Homo sapiens) (UniProt P08254)", "sequence (P08254 100-477 limits assumed)": "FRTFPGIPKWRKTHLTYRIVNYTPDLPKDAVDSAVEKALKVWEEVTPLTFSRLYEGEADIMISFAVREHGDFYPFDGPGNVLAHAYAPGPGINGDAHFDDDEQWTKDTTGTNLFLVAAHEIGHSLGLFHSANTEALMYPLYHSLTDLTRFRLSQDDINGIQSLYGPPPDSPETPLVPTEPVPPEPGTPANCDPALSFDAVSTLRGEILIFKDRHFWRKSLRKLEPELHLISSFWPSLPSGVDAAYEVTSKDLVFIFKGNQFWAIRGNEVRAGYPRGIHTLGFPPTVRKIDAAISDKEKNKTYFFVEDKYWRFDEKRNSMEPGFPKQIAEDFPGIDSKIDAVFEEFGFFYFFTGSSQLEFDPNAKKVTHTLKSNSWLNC", "assay": "Inhibition of MMP-3 (unknown origin) at 5 uM"}, "[15]": {"target": "Stromelysin-1 (Homo sapiens) (UniProt P08254)", "assay": "Inhibition of MMP-3 (unknown origin) at 10 uM"}, "[16]": {"system": "SF-188", "assay": "Antiproliferative activity against human SF-188 cells assessed as inhibition of cell proliferation", "assay_type": "functional, cell-based"}, "[17]": {"assay": "Antiproliferative activity against human U-87 MG cells assessed as inhibition of cell proliferation", "assay_type": "functional, cell-based, U-87MG ATCC"}, "[18]": {"system": "Ishikawa", "assay": "Induction of autophagy in human Ishikawa cells assessed as ratio of LC3bII/LC3bI levels", "assay_type": "functional"}, "[19]": {"system": "RL95-2", "assay": "Induction of autophagy in human RL95-2 cells assessed as ratio of LC3bII/LC3bI levels", "assay_type": "functional"}, "[20]": {"system": "REH", "assay": "Antiproliferative activity against human REH cells assessed as cell growth inhibition", "assay_type": "functional, cell-based"}, "[21]": {"system": "RS4-11", "assay": "Antiproliferative activity against human RS4-11 cells assessed as cell growth inhibition", "assay_type": "functional, cell-based"}, "[22]": {"assay": "Cytotoxicity against human PBMC assessed as cell growth inhibition", "assay_type": "toxicity, cell-based", "settings": "PBMC (peripheral blood mononuclear cells)"}, "[23]": {"assay": "Antiproliferative activity against human Ectopic endometrial stromal cell assessed as cell growth inhibition", "assay_type": "functional, cell-based"}, "[24]": {"system": "Bacillus subtilis", "assay": "Antimicrobial activity against Bacillus subtilis assessed as bacterial growth inhibition", "assay_type": "functional"}, "[25]": {"system": "Staphylococcus aureus", "assay": "Antimicrobial activity against Staphylococcus aureus USA300 assessed as bacterial growth inhibition", "assay_type": "functional"}, "[26]": {"system": "PC-3", "assay": "Antiproliferative activity against human PC-3 cells assessed as cell growth inhibition", "assay_type": "functional, cell-based"}, "[27]": {"system": "MCF7", "assay": "Antiproliferative activity against human MCF7 cells assessed as cell growth inhibition", "assay_type": "functional, cell-based"}, "[28]": {"system": "HCT-116", "assay": "Induction of apoptosis in human HCT-116 cells at 20 uM in presence of EGCG at 30 uM relative to control", "assay_type": "functional"}, "[29]": {"system": "HCT-116", "assay": "Induction of apoptosis in human HCT-116 cells at 20 uM in presence of EGCG at 20 uM relative to control", "assay_type": "functional"}, "[30]": {"system": "HCT-116", "assay": "Induction of apoptosis in human HCT-116 cells at 20 uM relative to control", "assay_type": "functional"}, "[31]": {"system": "HCT-116", "assay": "Induction of apoptosis in human HCT-116 cells at 10 uM relative to control", "assay_type": "functional"}, "[32]": {"system": "HCT-116", "assay": "Induction of apoptosis in human HCT-116 cells at 10 uM in presence of EGCG at 10 uM relative to control", "assay_type": "functional"}, "[33]": {"system": "HCT-116", "assay": "Induction of apoptosis in human HCT-116 cells at 10 uM in presence of EGCG at 30 uM relative to control", "assay_type": "functional"}, "[34]": {"system": "HCT-116", "assay": "Induction of apoptosis in human HCT-116 cells at 10 uM in presence of EGCG at 20 uM relative to control", "assay_type": "functional"}, "[35]": {"system": "HCT-116", "assay": "Induction of apoptosis in human HCT-116 cells at 20 uM in presence of EGCG at 10 uM relative to control", "assay_type": "functional"}, "[36]": {"system": "HCT-116", "assay": "Antiproliferative activity against human HCT-116 cells assessed as cell growth inhibition", "assay_type": "functional, cell-based"}, "[37]": {"system": "SW480", "assay": "Antiproliferative activity against human SW480 cells assessed as cell growth inhibition", "assay_type": "functional, cell-based"}, "[38]": {"system": "HCT-116", "assay": "Antiproliferative activity against human HCT-116 cells assessed as cell growth inhibition in presence of irinotecan", "assay_type": "functional, cell-based"}, "[39]": {"system": "SW480", "assay": "Antiproliferative activity against human SW480 cells assessed as cell growth inhibition in presence of irinotecan", "assay_type": "functional, cell-based"}}, "data": [{"smiles": "CC(C)(O)[C@H]1CC[C@@](C)([C@H]2CC[C@]3(C)C2[C@H](O)CC2[C@@]4(C)CC[C@H](O)C(C)(C)C4CC[C@]23C)O1", "note": "(some centres undefined)", "values": [{"measurement": "IC50", "setting": "[1]", "result": 4.58, "unit": "µM"}]}, {"smiles": "CO[C@@H]1CC(=O)[C@]2(C)C1[C@H](OC(C)=O)CC1[C@@]3(C)CC[C@H](O)C(C)(C)C3CC[C@]12C", "note": "(some centres undefined)", "values": [{"measurement": "IC50", "setting": "[2]", "result": 0.015, "unit": "µM"}, {"measurement": "IC50", "setting": "[3]", "result": 3.3, "unit": "µM"}]}, {"smiles": "CO[C@H]1CC(=O)[C@]2(C)C1[C@H](OC(C)=O)CC1[C@@]3(C)CC[C@H](O)C(C)(C)C3CC[C@]12C", "note": "(some centres undefined)", "values": [{"measurement": "IC50", "setting": "[2]", "result": 0.044, "unit": "µM"}, {"measurement": "IC50", "setting": "[3]", "result": 0.41, "unit": "µM"}]}, {"smiles": "CC1(C)CCC[C@](C)(C2CC[C@]3(C)C2[C@H](O)CC2[C@@]4(C)CC[C@H](OC(=O)c5cc(O)c(O)c(O)c5)C(C)(C)C4CC[C@]23C)O1", "note": "(some centres undefined)", "values": [{"measurement": "IC50", "setting": "[4]", "result": 7.27, "unit": "µM"}]}, {"smiles": "CC(C)=CCC[C@](C)(O)C1CC[C@]2(C)C1[C@H](O)CC1[C@@]3(C)CC[C@H](O)C(C)(C)C3CC[C@]12C", "note": "(some centres undefined)", "values": [{"measurement": "IC50", "setting": "[5]", "result": 4.69, "unit": "µM"}, {"measurement": "Activity", "setting": "[6]", "result": "<30", "unit": "%"}, {"measurement": "IC50", "setting": "[7]", "result": 8.99, "unit": "µM"}, {"measurement": "IC50", "setting": "[8]", "result": 53, "unit": "µM"}, {"measurement": "IC50", "setting": "[9]", "result": 23, "unit": "µM"}, {"measurement": "IC50", "setting": "[10]", "result": 13, "unit": "µM"}, {"measurement": "IC50", "setting": "[11]", "result": 41, "unit": "µM"}, {"measurement": "IC50", "setting": "[12]", "result": 26.3, "unit": "µM"}, {"measurement": "IC50", "setting": "[13]", "result": 76.8, "unit": "µM"}, {"measurement": "inhibition", "setting": "[14]", "result": 40.3, "unit": "%"}, {"measurement": "inhibition", "setting": "[15]", "result": 68.6, "unit": "%"}, {"measurement": "IC50", "setting": "[16]", "result": 24, "unit": "µM"}, {"measurement": "IC50", "setting": "[17]", "result": 38, "unit": "µM"}, {"measurement": "Ratio", "setting": "[18]", "result": 0.91}, {"measurement": "Ratio", "setting": "[19]", "result": 1.93}, {"measurement": "IC50", "setting": "[20]", "result": 24.4, "unit": "µM"}, {"measurement": "IC50", "setting": "[21]", "result": 27.2, "unit": "µM"}, {"measurement": "IC50", "setting": "[22]", "result": 116, "unit": "µM"}, {"measurement": "IC50", "setting": "[23]", "result": 30.6, "unit": "µM"}]}, {"smiles": "CC(C)(O)[C@H]1CC[C@@](C)([C@H]2CC[C@]3(C)C2[C@H](O)CC2[C@@]4(C)CC[C@H](OC(=O)C5CCNCC5)C(C)(C)C4CC[C@]23C)O1", "note": "(some centres undefined)", "values": [{"measurement": "MIC", "setting": "[24]", "result": 2, "unit": "µg/mL"}, {"measurement": "MIC", "setting": "[25]", "result": 8, "unit": "µg/mL"}]}, {"smiles": "CC(C)(O)[C@@H]1CC[C@@](C)([C@H]2CC[C@]3(C)C2[C@H](O)CC2[C@@]4(C)CC[C@H](O)C(C)(C)C4CC[C@]23C)O1", "note": "(some centres undefined)", "values": [{"measurement": "IC50", "setting": "[1]", "result": 17.7, "unit": "µM"}]}, {"smiles": "COc1ccc(/C=C2/C[C@@]3(C)C(CC[C@]4(C)C3C[C@@H](O)C3C([C@@]5(C)CCCC(C)(C)O5)CC[C@]34C)C(C)(C)C2=O)cc1", "note": "(some centres undefined)", "values": [{"measurement": "IC50", "setting": "[26]", "result": 39.4, "unit": "µM"}]}, {"smiles": "COc1cc(/C=C2/C[C@@]3(C)C(CC[C@]4(C)C3C[C@@H](O)C3C([C@@]5(C)CCCC(C)(C)O5)CC[C@]34C)C(C)(C)C2=O)cc(OC)c1OC", "note": "(some centres undefined)", "values": [{"measurement": "IC50", "setting": "[26]", "result": 45.6, "unit": "µM"}]}, {"smiles": "CC1(C)CCC[C@](C)(C2CC[C@]3(C)C2[C@H](O)CC2[C@@]4(C)CC[C@H](OC(=O)CCC(=O)O)C(C)(C)C4CC[C@]23C)O1", "note": "(some centres undefined)", "values": [{"measurement": "IC50", "setting": "[4]", "result": 7.27, "unit": "µM"}]}, {"smiles": "CC(=O)Oc1ccccc1C(=O)O[C@H]1CC[C@@]2(C)C(CC[C@]3(C)C2C[C@@H](O)C2C([C@@]4(C)CCCC(C)(C)O4)CC[C@]23C)C1(C)C", "note": "(some centres undefined)", "values": [{"measurement": "IC50", "setting": "[27]", "result": 2.56, "unit": "µM"}]}, {"smiles": "CC1(C)CCC[C@@](C)(C2CC[C@]3(C)C2[C@H](O)CC2[C@@]4(C)CC[C@H](O)C(C)(C)C4CC[C@]23C)O1", "note": "(some centres undefined)", "values": [{"measurement": "Activity", "setting": "[28]", "result": 48, "unit": "%"}, {"measurement": "Activity", "setting": "[29]", "result": 40.7, "unit": "%"}, {"measurement": "Activity", "setting": "[30]", "result": 19, "unit": "%"}, {"measurement": "Activity", "setting": "[31]", "result": 5.7, "unit": "%"}, {"measurement": "Activity", "setting": "[32]", "result": 14.1, "unit": "%"}, {"measurement": "Activity", "setting": "[33]", "result": 35.2, "unit": "%"}, {"measurement": "Activity", "setting": "[34]", "result": 30.2, "unit": "%"}, {"measurement": "Activity", "setting": "[35]", "result": 27.8, "unit": "%"}, {"measurement": "IC50", "setting": "[36]", "result": 12.1, "unit": "µM"}, {"measurement": "IC50", "setting": "[37]", "result": 5, "unit": "µM"}, {"measurement": "IC50", "setting": "[38]", "result": 11.8, "unit": "µM"}, {"measurement": "IC50", "setting": "[39]", "result": 4.4, "unit": "µM"}]}]}
